The text below walks through data of patent publication US20260022142A1, “MACROCYCLIC IMMUNOMODULATORS” (Bristol-Myers Squibb Company, priority 2022, published 2026).

Bridge positions count the residues as written; N and C are the ends. Square brackets hold non-standard residues; d marks the D form. Peptide text beside a SMILES is read from it. * marks the point of attachment. ξ: configuration not given here. Tyr(3-Cl) = N[C@@H](Cc1ccc(O)c(Cl)c1)C(=O)O; Bip = N[C@@H](Cc1ccc(-c2ccccc2)cc1)C(=O)O; NH(CH2)14COOH = O=C(O)CCCCCCCCCCCCCCN*; Phe(3-Me) = Cc1cccc(C[C@H](N)C(=O)O)c1; Phe(4-F) = N[C@@H](Cc1ccc(F)cc1)C(=O)O; Val(3-OH) = CC(C)(O)[C@H](N)C(=O)O; Cha = N[C@@H](CC1CCCCC1)C(=O)O; Cit = NC(=O)NCCC[C@H](N)C(=O)O; Ile(3ξ) = CCC(C)[C@H](N)C(=O)O; Thr(3ξ) = CC(O)[C@H](N)C(=O)O; Carboxymethyl = O=C(O)C*; Orn = NCCC[C@H](N)C(=O)O; Aun = NCCCCCCCCCCC(=O)O; Dab = NCC[C@H](N)C(=O)O; Dap = NC[C@H](N)C(=O)O; AEEA = NCCOCCOCC(=O)O

The target in this experiment is T1, PD-1/PD-L1 interaction (PE-labeled human PD-L1-Ig binding to Jurkat cell line over-expressing human PD-1) (Homo sapiens, UniProt Q15116).
T1 construct: expressed in transfected cells; host or cells: Jurkat
T1 sequence (Q15116 25-288): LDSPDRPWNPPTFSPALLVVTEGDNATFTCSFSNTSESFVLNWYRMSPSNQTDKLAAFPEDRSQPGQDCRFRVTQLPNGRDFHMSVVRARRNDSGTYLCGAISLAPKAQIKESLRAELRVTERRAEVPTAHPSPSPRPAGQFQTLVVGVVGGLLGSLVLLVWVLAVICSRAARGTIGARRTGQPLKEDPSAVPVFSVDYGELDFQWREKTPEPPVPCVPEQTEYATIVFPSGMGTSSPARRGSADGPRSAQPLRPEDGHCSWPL
In words: Jurkat-PD-1 Cell Binding High-Content Screening Assay (CBA). The class given is cell-based. Conditions: Jurkat cell line over-expressing human PD-1; PE-labeled PD-L1-Ig 20 nM final; read-out: Jurkat hPD1-PDL1 IC50. In short, it runs like this: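 Binding of fluorescent PD-L1-Ig (phycoerythrin on Ig tag, 20 nM final, 1 h) measured by high-content imaging of fixed, Hoechst-counterstained Jurkat-hPD-1 cells. Compound added 2 h at 37° C beforehand, in DMEM with 10% fetal calf serum.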
As a reminder, the IC50 is the concentration at which inhibition is half-maximal. Regarding `Cc1cccc(C[C@@H]2NC(=O)[C@H](CC(=O)O)NC(=O)[C@H](Cc3ccc(OCC(=O)O)cc3)NC(=O)[C@H](CN)NC(=O)CSC[C@@H](C(=O)N[C@@H](C)C(=O)N[C@@H](CCC(=O)O)C(=O)NCCCCCCCCCCC(=O)O)NC(=O)[C@H](CN)NC(=O)[C@H](C(C)C)NC(=O)[C@H](CC3CCCCC3)NC(=O)[C@H](CCN)NC(=O)[C@@H](CC(C)C)NC(=O)[C@H](CCCN)NC(=O)[C@H](CCCNC(N)=O)NC(=O)[C@H](Cc3ccc(-c4ccccc4)cc3)NC(=O)[C@H](C(C)C)NC2=O)c1` [Compound 2618] ({CH2CO}-[Dap]Y(Carboxymethyl)D[Phe(3-Me)]V[Bip][Cit][Orn][dL][Dab][Cha]V[Dap]CAE[Aun]-OH; thioether N-14), the IC50 came out at 12.5 nM.

In the case of `CC(C)C[C@@H]1NC(=O)[C@H](Cc2c[nH]c3ccccc23)NC(=O)[C@H](CC(=O)O)NC(=O)[C@H](Cc2ccc(OCC(=O)O)cc2)NC(=O)[C@H](CCN)NC(=O)CSC[C@@H](C(=O)NCCOCCOCC(=O)NCCCCCCCCCCC(=O)O)NC(=O)[C@H](CO)NC(=O)[C@H](C(C)C)NC(=O)[C@H](CC2CCCCC2)NC(=O)[C@H](Cc2cnc[nH]2)NC(=O)[C@@H](CC(C)C)NC(=O)[C@H](CCCN)NC(=O)[C@H](C(C)C)NC(=O)[C@H](Cc2ccc(-c3ccccc3)cc2)NC1=O` [Compound 3701] ({CH2CO}-[Dab]Y(Carboxymethyl)DWL[Bip]V[Orn][dL]H[Cha]VSC[AEEA][Aun]-OH; thioether N-14), the IC50 was determined as 92.2 nM. Next, `Cc1cccc(C[C@@H]2NC(=O)[C@H](CC(=O)O)NC(=O)[C@H](Cc3ccc(OCC(=O)O)cc3)NC(=O)[C@H](CN)NC(=O)CSC[C@@H](C(=O)N[C@@H](CCC(=O)O)C(=O)NCCCCCCCCCCC(=O)O)NC(=O)[C@H]([C@@H](C)O)NC(=O)[C@H](C(C)C)NC(=O)[C@H](CC3CCCCC3)NC(=O)[C@H](Cc3cnc[nH]3)NC(=O)[C@@H](CC(C)C)NC(=O)[C@H](CCCN)NC(=O)[C@H](C(C)C)NC(=O)[C@H](Cc3ccc(-c4ccccc4)cc3)NC(=O)[C@H](C(C)C)NC2=O)c1` [Compound 1108] ({CH2CO}-[Dap]Y(Carboxymethyl)D[Phe(3-Me)]V[Bip]V[Orn][dL]H[Cha]VTCE[Aun]-OH; thioether N-14): 27 nM. For the molecule `CC(=O)NCCCC[C@@H]1NC(=O)[C@H](Cc2ccc(-c3ccccc3)cc2)NC(=O)[C@H](Cc2ccc(O)cc2)NC(=O)[C@H](Cc2cccc(C)c2)NC(=O)[C@H](CC(=O)O)NC(=O)[C@H](Cc2ccc(OCC(=O)O)cc2)NC(=O)[C@H](CCCNC(=N)N)NC(=O)CSC[C@@H](C(=O)N[C@@H](CCN)C(=O)NCCCCCCCCCCC(=O)O)NC(=O)[C@H](CCCNC(N)=O)NC(=O)[C@H](C(C)C)NC(=O)[C@H](CC2CCCCC2)NC(=O)[C@H](CCN)NC(=O)[C@@H](CC(C)C)NC(=O)[C@H](CCCN)NC1=O` [Compound 3386] ({CH2CO}-RY(Carboxymethyl)D[Phe(3-Me)]Y[Bip]K(Ac)[Orn][dL][Dab][Cha]V[Cit]C[Dab][Aun]-OH; thioether N-14), the half-inhibitory concentration (IC50) is 4.4 nM. Take `Cc1cccc(C[C@@H]2NC(=O)[C@H](CC(=O)O)NC(=O)[C@H](Cc3ccc(OCC(=O)O)cc3)NC(=O)[C@H](CN)NC(=O)CSC[C@@H](C(=O)N[C@@H](CCN)C(=O)NCCCCCCCCCCC(=O)O)NC(=O)[C@H](CCCN)NC(=O)[C@H](C(C)C)NC(=O)[C@H](CC3CCCCC3)NC(=O)[C@H](CCN)NC(=O)[C@@H](CC(C)C)NC(=O)[C@H](CCCN)NC(=O)[C@H](CCCNC(N)=O)NC(=O)[C@H](Cc3ccc(-c4ccccc4)cc3)NC(=O)[C@H](Cc3ccc(O)cc3)NC2=O)c1` [Compound 2846] ({CH2CO}-[Dap]Y(Carboxymethyl)D[Phe(3-Me)]Y[Bip][Cit][Orn][dL][Dab][Cha]V[Orn]C[Dab][Aun]-OH; thioether N-14): the IC50 worked out at 12.8 nM.

Turning to `CC(C)C[C@H]1NC(=O)[C@H](CCCN)NC(=O)[C@H](C(C)C)NC(=O)[C@H](Cc2ccc(-c3ccccc3)cc2)NC(=O)[C@H](C(C)C)NC(=O)[C@H](Cc2c[nH]c3ccccc23)NC(=O)[C@H](CC(=O)O)NC(=O)[C@H](Cc2ccc(OCC(=O)O)cc2)NC(=O)[C@H](Cc2ccc(OCC(=O)O)cc2)NC(=O)CSC[C@@H](C(=O)N[C@@H](CCN)C(=O)NCCOCCOCC(=O)NCCCCCCCCCCC(=O)O)NC(=O)[C@H](CCCNC(=N)N)NC(=O)[C@H](C(C)C)NC(=O)[C@H](CC2CCCCC2)NC(=O)[C@H](CCN)NC1=O` [Compound 2548] ({CH2CO}-Y(Carboxymethyl)Y(Carboxymethyl)DWV[Bip]V[Orn][dL][Dab][Cha]VRC[Dab][AEEA][Aun]-OH; thioether N-14), the IC50 was 11.6 nM. For `CC(=O)NCCCC[C@@H]1NC(=O)[C@H](Cc2ccc(-c3ccccc3)cc2)NC(=O)[C@H](C(C)C)NC(=O)[C@H](Cc2cccc(C)c2)NC(=O)[C@H](CC(=O)O)NC(=O)[C@H](Cc2ccc(OCC(=O)O)cc2)NC(=O)[C@H](C(C)O)NC(=O)CSC[C@@H](C(=O)N[C@H](CC(N)=O)C(=O)NCCCCCCCCCCC(=O)O)NC(=O)[C@H](C(C)O)NC(=O)[C@H](C(C)C)NC(=O)[C@H](CC2CCCCC2)NC(=O)[C@H](CCN)NC(=O)[C@@H](CC(C)C)NC(=O)[C@H](CCCN)NC1=O` (stereo partly drawn) [Compound 3431] ({CH2CO}-[Thr(3ξ)]Y(Carboxymethyl)D[Phe(3-Me)]V[Bip]K(Ac)[Orn][dL][Dab][Cha]V[Thr(3ξ)]C[dN][Aun]-OH; thioether N-14) the value was 4.9 nM. Next, `CCC(C)[C@@H]1NC(=O)[C@H](Cc2ccc(-c3ccccc3)cc2)NC(=O)[C@H](C(C)C)NC(=O)[C@H](Cc2c[nH]c3ccccc23)NC(=O)[C@H](CC(=O)O)NC(=O)[C@H](Cc2ccc(OCC(=O)O)cc2)NC(=O)[C@H](Cc2ccc(OCC(=O)O)cc2)NC(=O)CSC[C@@H](C(=O)N[C@H](C)C(=O)NCCOCCOCC(=O)NCCCCCCCCCCCCCCC(=O)O)NC(=O)[C@H](CCCNC(=N)N)NC(=O)[C@H](C(C)(C)O)NC(=O)[C@H](CC2CCCCC2)NC(=O)[C@H](CCN)NC(=O)[C@@H](CC(C)C)NC(=O)[C@H](CCCN)NC1=O` (stereo partly drawn) [Compound 3886] ({CH2CO}-Y(Carboxymethyl)Y(Carboxymethyl)DWV[Bip][Ile(3ξ)][Orn][dL][Dab][Cha][Val(3-OH)]RC[dA][AEEA]-{NH(CH2)14COOH}; thioether N-14): 202 nM; `Cc1cccc(C[C@@H]2NC(=O)[C@H](CC(=O)O)NC(=O)[C@H](Cc3ccc(OCC(=O)O)cc3)NC(=O)[C@H](CN)NC(=O)CSC[C@@H](C(=O)N[C@@H](CCN)C(=O)NCCOCCOCC(=O)NCCCCCCCCCCC(=O)O)NC(=O)[C@H](CCCN)NC(=O)[C@H](C(C)C)NC(=O)[C@H](CC3CCCCC3)NC(=O)[C@H](CCN)NC(=O)[C@@H](CC(C)C)NC(=O)[C@H](CCCN)NC(=O)[C@H](Cc3ccc(O)cc3)NC(=O)[C@H](Cc3ccc(-c4ccccc4)cc3)NC(=O)[C@H](Cc3ccc(O)c(Cl)c3)NC2=O)c1` [Compound 2075] ({CH2CO}-[Dap]Y(Carboxymethyl)D[Phe(3-Me)][Tyr(3-Cl)][Bip]Y[Orn][dL][Dab][Cha]V[Orn]C[Dab][AEEA][Aun]-OH; thioether N-14): 14.3 nM. With `COc1ccc(C[C@@H]2NC(=O)CSC[C@@H](C(=O)N[C@@H](CCN)C(=O)NCCCCCCCCCCC(=O)O)NC(=O)[C@H](CO)NC(=O)[C@H](C(C)(C)O)NC(=O)[C@H](CC3CCCCC3)NC(=O)[C@H](CCN)NC(=O)[C@@H](CC(C)C)NC(=O)[C@H](CCCN)NC(=O)[C@H](Cc3ccc(OCC(=O)O)cc3)NC(=O)[C@H](Cc3ccc(-c4ccccc4)cc3)NC(=O)[C@H](Cc3ccc(OCC(=O)O)cc3)NC(=O)[C@H](Cc3cccc(C)c3)NC(=O)[C@H](CC(=O)O)NC(=O)[C@H](Cc3ccc(OCC(=O)O)cc3)NC2=O)cc1` [Compound 2181] ({CH2CO}-Y(Me)Y(Carboxymethyl)D[Phe(3-Me)]Y(Carboxymethyl)[Bip]Y(Carboxymethyl)[Orn][dL][Dab][Cha][Val(3-OH)]SC[Dab][Aun]-OH; thioether N-14), the IC50 stood at 17.7 nM. For the molecule `Cc1cccc(C[C@@H]2NC(=O)[C@H](CC(=O)O)NC(=O)[C@H](Cc3ccc(OCC(=O)O)cc3)NC(=O)[C@H](CCN)NC(=O)CSC[C@@H](C(=O)N[C@H](CC(N)=O)C(=O)NCCOCCOCC(=O)NCCCCCCCCCCC(=O)O)NC(=O)[C@H](CCCN)NC(=O)[C@H](C(C)C)NC(=O)[C@H](CC3CCCCC3)NC(=O)[C@H](CCN)NC(=O)[C@@H](CC(C)C)NC(=O)[C@H](CCCN)NC(=O)[C@H](Cc3ccc(O)cc3)NC(=O)[C@H](Cc3ccc(-c4ccccc4)cc3)NC(=O)[C@H](C(C)C)NC2=O)c1` [Compound 3616] ({CH2CO}-[Dab]Y(Carboxymethyl)D[Phe(3-Me)]V[Bip]Y[Orn][dL][Dab][Cha]V[Orn]C[dN][AEEA][Aun]-OH; thioether N-14), the IC50 came out at 18.3 nM. For the molecule `Cc1cccc(C[C@@H]2NC(=O)[C@H](CC(=O)O)NC(=O)[C@H](Cc3ccc(OCC(=O)O)cc3)NC(=O)[C@H](CCN)NC(=O)CSC[C@@H](C(=O)N[C@@H](CCN)C(=O)NCCCCCCCCCCC(=O)O)NC(=O)[C@H](CO)NC(=O)[C@H](C(C)(C)O)NC(=O)[C@H](CC3CCCCC3)NC(=O)[C@H](Cc3cnc[nH]3)NC(=O)[C@@H](CC(C)C)NC(=O)[C@H](CCCN)NC(=O)[C@H](Cc3ccc(OCC(=O)O)cc3)NC(=O)[C@H](Cc3ccc(-c4ccccc4)cc3)NC(=O)[C@H](Cc3ccc(F)cc3)NC2=O)c1` [Compound 3731] ({CH2CO}-[Dab]Y(Carboxymethyl)D[Phe(3-Me)][Phe(4-F)][Bip]Y(Carboxymethyl)[Orn][dL]H[Cha][Val(3-OH)]SC[Dab][Aun]-OH; thioether N-14), the IC50 came out at 16.9 nM.
